The target in this test is T1, Calmodulin-sensitive adenylate cyclase (Bacillus anthracis, UniProt P40136).
T1 sequence (P40136 whole entry): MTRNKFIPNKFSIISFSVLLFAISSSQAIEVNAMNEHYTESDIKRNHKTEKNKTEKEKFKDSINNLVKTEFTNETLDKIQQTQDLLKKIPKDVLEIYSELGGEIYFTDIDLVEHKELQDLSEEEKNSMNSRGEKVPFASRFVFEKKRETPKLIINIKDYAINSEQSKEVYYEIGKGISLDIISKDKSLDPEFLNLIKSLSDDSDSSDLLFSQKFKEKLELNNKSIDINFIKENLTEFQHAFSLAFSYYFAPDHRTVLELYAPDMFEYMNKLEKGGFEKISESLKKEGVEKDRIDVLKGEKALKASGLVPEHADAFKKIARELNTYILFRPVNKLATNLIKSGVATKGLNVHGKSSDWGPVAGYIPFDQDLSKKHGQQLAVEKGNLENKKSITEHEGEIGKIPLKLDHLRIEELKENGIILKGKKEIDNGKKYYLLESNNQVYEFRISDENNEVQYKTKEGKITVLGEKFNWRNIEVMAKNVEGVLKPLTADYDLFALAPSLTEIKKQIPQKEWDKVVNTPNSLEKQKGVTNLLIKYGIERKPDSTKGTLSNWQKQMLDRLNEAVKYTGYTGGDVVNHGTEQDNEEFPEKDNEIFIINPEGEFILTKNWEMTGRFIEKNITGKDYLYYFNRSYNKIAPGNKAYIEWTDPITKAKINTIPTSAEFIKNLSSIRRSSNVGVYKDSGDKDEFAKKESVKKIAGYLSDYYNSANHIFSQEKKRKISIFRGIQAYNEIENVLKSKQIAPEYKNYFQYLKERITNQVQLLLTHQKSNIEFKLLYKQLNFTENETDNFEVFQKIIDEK
The test can be described thus: Inactivation of Bacillus anthracis edema factor in presence of CaM incubated for 10 to 240 mins by EnzChek pyrophosphate assay.

SMILES strings stand for the structures. pKi: −log10 of the molar value.

Take `Nc1cc(OC2CCN(C(=O)c3ccc(S(=O)(=O)F)cc3)CC2)ccn1`: the negative logarithm of the Ki (pKi) is 4.23.

Source of the values: BindingDB's records for doi:10.1016/j.bmcl.2017.11.040 (Hawaii Biotech, 2018).
